The target in one data set is T1, HRP3 PWWP WT (Homo sapiens, UniProt Q9Y3E1).
T1 construct: using ^15N-labelled HRP3 PWWP (residues 1–110) dissolved in buffer; 6xHis-SUMO (cleaved yes); made in house; host or cells: Escherichia coli Rosetta (DE3)
In words: NMR titration of H3K36 peptides with wild-type HRP3 PWWP. In kind it is binding. The settings on record: 15N-labelled HRP3 PWWP (1–110) WT, H3 residues 29–41, 20 mM PBS pH 6.9, 20 mM NaCl, 2 mM DTT, 298 K. Here is the method: (§1) All 2D ^1H-^15N HSQC NMR spectra were collected on the Bruker Avance III HD 600 MHz and 800 MHz spectrometers at 298 K. The NMR data were processed by NMRPipe ([39]) and analysed by KUJIRA ([40]) running with NMRview ([41]) softwares. Chemical shift perturbation experiments were carried out using ^15N-labelled HRP3 PWWP (residues 1–110) dissolved in buffer containing 20 mM PBS at pH 6.9, 20 mM NaCl and 2 mM DTT. A series of 2D ^1H-^15N HSQC spectra were recorded at HRP3 PWWP:H3K36me3/2/1/0 (residues 29–41) molar ratios of 1:0, 1:0.5, 1:1.5, 1:4, 1:6, 1:10, 1:15 and 1:20, respectively. The combined chemical shift perturbation was calculated using the following equation: Δδ = [(Δδ^1H)^2 + (Δδ^15N/5)^2]^1/2. Dissociation constants were calculated by fitting the data to a single-site ligand-binding model (SigmaPlot).

Data set [1] relates to chromatin of HepG2 cells. Nature of the data set: Subcellular fractionation, chromatin binding of GFP-HRP3 variants in HepG2 cells. It counts as cell-based, human. The settings on record: cellular fractionation, western blot anti-GFP. Here is the method:
(§2) HepG2 (ATCC HB-8065) and HEK293T human embryonic kidney cells (ATCC #CRL-11268) were cultured in Dulbecco’s modified Eagle’s medium supplemented with 10% FBS. Stable overexpression of wild-type or mutant HRP3 in HepG2 cells was performed using FUGW lentiviral constructs expressing wild-type or mutant HRP3. Lentiviral vector infections ([47]) and plasmid transfections ([48]) were performed as previously described. Overexpression efficiency was determined by western blot.
Cellular fractionations were performed using a Subcellular Fractionation Kit (Thermo Scientific, cat. 78840) according to the manufacturer’s protocol. A total of 1 × 10^6 cells were used for each cell line’s fractionation. Soluble nuclear contents and chromatin-bound nuclear contents were analysed by western blotting using anti-GFP (gta-20, Chromo-Tek) and anti-histone H3 (4499S, CST) antibodies.
On the technique in general: Immunoblotting shows a protein as a band on a membrane.

Data set [2] relates to chromatin of HepG2 cells. Nature of the data set: ChIP-Seq of GFP-HRP3 variants in HepG2 cells. The following applies: ChIP-Seq with GFP antibody, HepG2, two biological replicates combined. It counts as cell-based, human. Here is the method:
as §2
For chromatin immunoprecipitation, HepG2 cells were cross-linked with 1% formaldehyde at 37°C for 10 min and quenched with 0.125 M glycine for 5 min at room temperature. ChIP was performed using a ChIP assay kit (Millipore) according to the manufacturer’s protocol. Antibodies used for ChIP were GFP (gta-20, Chromo-Tek) and H3K36me3 (ab9050, abcam).
ChIP-Seq data were aligned to human genome hg19 using Bowtie 1.0 allowing one mismatch. Two biological replicates were performed and combined for the analysis. Analysis was performed using the Galaxy ([49]) and Cistrome ([50]) Platform and via custom R scripts for Bioconductor ([51]). Peak calling was performed using MACS2. Promoter definitions were downloaded from the UCSC browser ([52]). DNase I hypersensitivity and MNase-Seq data from ENCODE (GSM816662, GSM920557) ([53]) were used.

In the next data set the test system is H3K36me3 peptide. Nature of the data set: NMR titration, loss of H3K36me3 peptide binding of HRP3 PWWP mutants. The following applies: versus wild-type. As to the method: as §1
The subject of a further data set is HRP3 PWWP. Nature of the data set: DNA geometry analysis of the PWWP/DNA complex structures. More on the design: species or system human. Here is the method:
DNA geometry was analysed with the 3DNA ([42]) and Curves+ ([43]) programs. Electrostatic potentials were calculated using the DelPhi program ([44]). The minor groove width was measured according to the method described ([45]). In detail, the distances between the ith (i indicates the number of the base from one chain) phosphate atom from one chain and the (i + 4)th atom from the paired chain were used to describe the minor groove width at the ith base. Electrostatic potentials were calculated at the midpoints between the above phosphate atom pairs used to calculate the minor groove widths.

A further data set deals with HRP3 PWWP (1-110) WT (UniProt Q9Y3E1 1-110). Nature of the data set: MST; MST: 50 mM KCl, 10 mM Na cacodylate pH 6.5, 2 mM DTT, 200 nM FAM-dsDNA; ITC: 10 mM PBS pH 7.0, 50 mM NaCl, 2 mM b-ME, 20 C; nucleosome EMSA: 20 mM Tris pH 7.5. The following applies: protein: recombinant, tags: none (His-SUMO removed), label: 5'-FAM (MST), blunt. (A gel shift assay detects complexes by their altered migration in electrophoresis.)

For data set [3], the target named is T2, HRP3 PWWP domain (residues 1–110) (human, UniProt Q9Y3E1 1-110).
T2 construct: HDGF-related protein 3 (HRP3, HDGFL3), human, residues 1-110 holding the PWWP domain; His-SUMO tag removed by ULP1 protease; also called HRP3 PWWP (1–110); HRP3(1-110); source: E. coli Rosetta (DE3), purified (nickel column, gel filtration), 15N-labelled
In words: NMR titration; 2D 1H-15N HSQC chemical shift perturbation of 15N-labelled HRP3 PWWP (1–110); H3 peptide (29–41) added to molar ratios 1:0 to 1:20; 298 K; 20 mM PBS pH 6.9, 20 mM NaCl, 2 mM DTT; single-site ligand-binding fit. The settings on record: both partners purified.

The target of data set [4] is T3, HRP3 PWWP domain (residues 1–110) Y22A (human, UniProt Q9Y3E1 1-110, Y22A).
T3 construct: HDGF-related protein 3 (HRP3, HDGFL3), human, residues 1-110 holding the PWWP domain, aromatic cage mutant; they are not repeated for the mutants; source: E. coli Rosetta (DE3), purified (nickel column, gel filtration), 15N-labelled
The data set is described as above. The following applies: both partners purified.

In data set [5] the target is T4, HRP3 PWWP domain (residues 1–110) F48A (human, UniProt Q9Y3E1 1-110, F48A).
T4 construct: HDGF-related protein 3 (HRP3, HDGFL3), human, residues 1-110 holding the PWWP domain, aromatic cage mutant; they are not repeated for the mutants; source: E. coli Rosetta (DE3), purified (nickel column, gel filtration), 15N-labelled
Described as above. The following applies: both partners purified.

Data set [6] addresses T5, HRP3 PWWP domain (residues 1–110) E53A (human, UniProt Q9Y3E1 1-110, E53A).
T5 construct: HDGF-related protein 3 (HRP3, HDGFL3), human, residues 1-110 holding the PWWP domain; they are not repeated for the mutants; source: E. coli Rosetta (DE3), purified (nickel column, gel filtration), 15N-labelled
Described as above. The settings on record: both partners purified.

Data set [7] deals with HRP3 PWWP K18A/N76A/R78A (KNR-A) (UniProt Q9Y3E1 1-110, K18A;N76A;R78A). Nature of the data set: MST; MST: 50 mM KCl, 10 mM Na cacodylate pH 6.5, 2 mM DTT, 200 nM FAM-dsDNA; ITC: 10 mM PBS pH 7.0, 50 mM NaCl, 2 mM b-ME, 20 C; nucleosome EMSA: 20 mM Tris pH 7.5. The following applies: protein: recombinant; tags: none (His-SUMO removed); label: 5'-FAM (MST); blunt; self-complementary.

A further data set has as its target HRP3 PWWP N76A (UniProt Q9Y3E1 1-110, N76A). Nature of the data set: MST; affinity unchanged vs WT; MST: 50 mM KCl, 10 mM Na cacodylate pH 6.5, 2 mM DTT, 200 nM FAM-dsDNA; ITC: 10 mM PBS pH 7.0, 50 mM NaCl, 2 mM b-ME, 20 C; nucleosome EMSA: 20 mM Tris pH 7.5. The settings on record: protein: recombinant; tags: none (His-SUMO removed); label: 5'-FAM (MST); blunt; self-complementary.

No end group written: not given here. Me3 = trimethyl-lysine (Lys side chain trimethylated); Me2 = dimethyl-lysine (Lys side chain dimethylated)

Here are results for 14 molecules from paper PMC6547440, “The HRP3 PWWP domain recognizes the minor groove of double-stranded DNA and recruits HRP3 to chromatin” (Nucleic Acids Research, 2019).

Usually Kd stands for the constant that tells how readily two partners part at equilibrium.

Sequence of HRP3 PWWP (1-110) WT (Q9Y3E1 1-110): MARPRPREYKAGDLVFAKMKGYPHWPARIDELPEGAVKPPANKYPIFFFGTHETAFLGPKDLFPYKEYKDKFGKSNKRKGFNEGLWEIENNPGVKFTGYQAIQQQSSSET
Sequence of HRP3 PWWP K18A/N76A/R78A (KNR-A) (Q9Y3E1 1-110 K18A/N76A/R78A): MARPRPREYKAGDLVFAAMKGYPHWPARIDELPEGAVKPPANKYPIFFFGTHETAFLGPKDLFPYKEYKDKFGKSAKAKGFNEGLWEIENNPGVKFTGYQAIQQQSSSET
T2 sequence (Q9Y3E1 1-110): as the sequence (Q9Y3E1 1-110) above
T1 sequence (Q9Y3E1 1-110): as above
T3 sequence (Q9Y3E1 1-110 Y22A): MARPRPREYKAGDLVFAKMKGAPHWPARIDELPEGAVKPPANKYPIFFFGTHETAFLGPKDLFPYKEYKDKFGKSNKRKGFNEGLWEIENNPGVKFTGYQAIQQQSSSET
T5 sequence (Q9Y3E1 1-110 E53A): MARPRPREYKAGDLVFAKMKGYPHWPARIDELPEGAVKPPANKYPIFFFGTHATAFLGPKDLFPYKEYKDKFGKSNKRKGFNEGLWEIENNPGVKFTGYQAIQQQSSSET
Sequence of HRP3 PWWP N76A (Q9Y3E1 1-110 N76A): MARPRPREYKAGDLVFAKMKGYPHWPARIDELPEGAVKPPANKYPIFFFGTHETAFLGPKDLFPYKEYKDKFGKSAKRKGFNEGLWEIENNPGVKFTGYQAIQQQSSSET
T4 sequence (Q9Y3E1 1-110 F48A): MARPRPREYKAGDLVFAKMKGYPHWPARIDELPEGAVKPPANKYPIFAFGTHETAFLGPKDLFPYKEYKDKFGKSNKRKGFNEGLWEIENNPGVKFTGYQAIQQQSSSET

On HRP3 PWWP WT, `CNCCCC[C@H](NC(=O)[C@@H](NC(=O)CNC(=O)CNC(=O)[C@@H](NC(=O)[C@H](C)NC(=O)[C@@H]1CCCN1C(=O)[C@H](C)N)[C@@H](C)O)C(C)C)C(=O)N[C@@H](CCCCN)C(=O)N1CCC[C@H]1C(=O)N[C@@H](Cc1c[nH]cn1)C(=O)N[C@@H](CCCNC(=N)N)C(=O)N[C@@H](Cc1ccc(O)cc1)C(=O)O` [H3K36me1] returned a Kd of 5100 ± 1900 µM.
Take “KYNR-A: HRP3 K18A/Y22A/N76A/R78A mutant, GFP fusion”: the “chromatin binding” value in the data set with chromatin of HepG2 cells [1] is recorded as “dramatically reduced the chromatin binding”. In the data set with chromatin of HepG2 cells [2], the “chromatin binding / recruitment by ChIP-Seq” value was “strong reduction in chromatin binding”.
Take “K18A: DNA binding mutant of human HRP3, GFP fusion”: the “chromatin binding” value in the data set on chromatin of HepG2 cells [1] is “dramatically reduced the chromatin binding”.
Y22A: HRP3 PWWP aromatic cage mutant: the “fold loss of binding affinity for the H3K36me3 peptide” value (from here on “fold loss … for the H3K36me3 peptide”) in the data set with H3K36me3 peptide came to 15 fold. Also, the “chromatin binding” value in the data set with chromatin of HepG2 cells [1] is on record as “but not the H3K36me3 binding amino acids (Y22A) alone, dramatically reduced the chromatin binding”. Further, the “chromatin binding / recruitment by ChIP-Seq” value in the data set with chromatin of HepG2 cells [2] was “weaker consequences”.
On to F48A: HRP3 PWWP aromatic cage mutant, for which the “fold loss … for the H3K36me3 peptide” value in the data set with H3K36me3 peptide was found to be 6.7 fold.
For the molecule E53A: HRP3 PWWP mutant E53A, the “fold loss … for the H3K36me3 peptide” value with H3K36me3 peptide was determined as 5.7 fold.
In the data set on HRP3 PWWP (3DNA), 5′-GCGCGCGCGC-3′ [10-mer-GC] registered an average helical twist of 35.3 ° and an average propeller twist of −7.3 °. Besides, in the data set on HRP3 PWWP (Curve+ software), the “bending angle towards the minor groove per 6 bps” value is reported as 3.4 °. In the data set on HRP3 PWWP (crystal structure of complex), the “narrowing of minor groove upon PWWP binding” value is around 2.7 Å; the “width of the minor groove, PWWP-binding region” value turned out to be 10.5 Å; the “width of the minor groove, PWWP-free region” value amounted to 13.2 Å.
Consider “KNR-A: HRP3 K18A/N76A/R78A mutant, GFP fusion”, for which the “chromatin binding” value in the data set with chromatin of HepG2 cells [1] is “dramatically reduced the chromatin binding”. For the same molecule, in the data set on chromatin of HepG2 cells [2], the “chromatin binding / recruitment by ChIP-Seq” value was “strong reduction in chromatin binding”.
As to `CC(C)[C@H](NC(=O)CNC(=O)CNC(=O)[C@@H](NC(=O)[C@H](C)NC(=O)[C@@H]1CCCN1C(=O)[C@H](C)N)[C@@H](C)O)C(=O)N[C@@H](CCCCN)C(=O)N[C@@H](CCCCN)C(=O)N1CCC[C@H]1C(=O)N[C@@H](Cc1c[nH]cn1)C(=O)N[C@@H](CCCNC(=N)N)C(=O)N[C@@H](Cc1ccc(O)cc1)C(=O)O` [H3K36me0], the Kd on HRP3 PWWP WT was 4700 ± 1200 µM.

B1: 16-mer-random (dsDNA)
DNA 1: CAGGCTGGTCTTGAAC
DNA 2: GTTCAAGACCAGCCTG
B1: in the data set with HRP3 PWWP (1-110) WT, the Kd is 3.2 µM.

B2: H3K36me2 histone peptide (H3 residues 29–41) (peptide, UniProt P68431 30-42, looked up)
peptide: APATGGVK(Me2)KPHRY
notes: histone H3, residues 29-41; also called H3K36me2-containing peptide
In the case of B2, the Kd in [3] came out at 2100 µM.

B3: H3K36me3 histone peptide (H3 residues 29–41) (peptide, UniProt P68431 30-42, looked up)
peptide: APATGGVK(Me3)KPHRY
notes: histone H3, residues 29-41; also called H3K36me3 peptide; H3K36me3-containing peptide
In the case of B3, in [3], the Kd is 1300 µM. The entries for the “fold loss of binding affinity against wild type” value in data set [4] and in data set [5] were 15 fold and 6.7 fold, respectively. The “fold decrease of binding against wild type” value in data set [6] was determined as 5.7 fold.

B4: 16-mer-GC (dsDNA)
DNA 1: GCGCGCGCGCGCGCGC
DNA 2: GCGCGCGCGCGCGCGC
For the molecule B4, the Kd with HRP3 PWWP (1-110) WT (self-complementary) is 2.8 µM. Moreover, the binding signal in [7] stood at 5.7 fold loss vs WT.

B5: 16-mer-TA (dsDNA)
DNA 1: TATATATATATATATA
DNA 2: TATATATATATATATA
B5: in the data set with HRP3 PWWP (1-110) WT (self-complementary), the Kd is 1.3 µM. Moreover, the binding signal in data set [7] came out at 58 fold loss vs WT. For the same molecule, the binding result in the data set with HRP3 PWWP N76A was “binds”.
